Literature values as cited in patent US12667579B2, “Pharmaceutical compositions for clinical nutrition” (BAXTER INTERNATIONAL INC., priority 2021, dated 2026).

What was measured:
[1] = ingested orally or enterally
[2] = test system: serum alkaline phosphatases
[3] = compounded with 96 mEq/L of calcium chloride

| Compound | share of ingested aluminum reaching the blood stream [1] | solubility in acetone (acetone) | solubility in ethanol (ethanol) | solubility in water (water) | amount hydrolyzed each day ([2]; individuals with normal serum alkaline phosphatase, hydrolysis completely in plasma) | plasma concentration at which maximum hydrolysis occurs ([2]; plasma, hydrolysis to inorganic phosphate and glycerol) | concentration up to which SGP is stable in compounded solutions [3] |
| --- | --- | --- | --- | --- | --- | --- | --- |
| [Al] [aluminum] | < 1% |  |  |  |  |  |  |
| sodium glycerophosphate [SGP] |  | essentially insoluble | essentially insoluble | freely soluble | 12 to 15 mmol | > 700 µM | up to 120 mmol/L |
